From patent US10363253B2, “Combination products for the treatment of RSV” (priority 2016, dated 2019)
Where “and” joins values, the source holds several entries; their conditions need not be identical. Equal values may be shown once. Read-outs that look alike come from different tables or passages of the source.

Tested on: rgRSV224, an engineered RSV strain that encodes for eGFP
Type: cell-based
Protocol: To evaluate their combined antiviral effect against RSV, in vitro combination studies were performed with JNJ-53718678 (“compound A”) and various compounds with different mechanisms-of-action (“compound B”). In short, 9 concentrations of Compound A were combined with 6 or 7 concentrations of a certain compound B. HeLa cells were infected with rgRSV224, an engineered RSV strain that encodes for eGFP (Hallak L K, Spillmann D, Collins P L, Peeples M E. Glycosaminoglycan sulfation requirements for respiratory syncytial virus infection; Journal of Virology (2000), 74(22), 10508-13), in the presence of various concentrations of compound A and compound B individually or in combination.
Compound stock solutions were 5 mM in 100% DMSO, with following exceptions: ribavirin, 20 mM; A 60444, 10 mM; CR9501, 141 μM in PBS; palivizumab, 156 μM in PBS; MDT 637, 100 μM in methanol. First, the compounds were serially diluted in 3-fold dilution series in DMSO; CR9501 and palivizumab were serially diluted in cell culture medium, and MDT 637 in methanol. The concentration series were diluted 100-fold in cell culture medium to achieve a combination matrix. 10 μL of these compound solutions were transferred to black 384-well clear-bottom tissue-culture treated plates. Next, 10 μL of a […] HeLa cell suspension was added to achieve 3000 cells per well. Finally, 10 μL of diluted virus stock was added to achieve an MOI of 1. The final DMSO concentration of all wells was 0.5% DMSO, except for the MDT 637 experiment where it was 0.25% DMSO+0.25% methanol. Each combination of compound concentrations was tested in 4 replicates on 3 separate plates, resulting in a total of 12 replicates. The plates were incubated for 3 days at 37° C. in a humidified atmosphere at 5% CO2. The GFP signal was measured with PerkinElmer EnVision apparatus using a 405 nm filter.
The method of Harbron (Statistics in Medicine, 2010, DOI:10.1002/sim3916) was used to assess synergy. Using the Loewe definition, two compounds are characterized as being additive, synergistic or antagonistic by:
where d1 and d2 represent the doses of the two compounds that in combination produce an effect y, and Dy,1 and Dy,2 represent the doses of the two compounds that produce the same effect, y, when administered as a monotherapy. A 3PL model (3-parameter log-logistic model) was used for the monotherapy dose-response data, where the baseline response was fixed at one.
Following Harbron's approach, the following models were fitted to the data: • “Additive”: assuming no interaction between the two compounds • “Uniform”: assuming a constant interaction index τ across all dose combinations • “Linear A”: assuming the interaction index linearly depends on the log 10 dose of compound A: z=τ1+τ2 log 10(dA) • “Separate A”: assuming the interaction index τ takes a separate value for each dose of compound A The latter two models were also considered for compound B: • “Linear B”: assuming the interaction index linearly τ depends on the log 10 dose of compound B: τ=τ1+τ2 log 10(dB) • “Separate B”: assuming the interaction index τ takes a separate value for each dose of compound B

## O=C(Nc1ccccc1F)N[C@H]1N=C(c2ccccc2)c2ccccc2NC1=O [Compound A-60444, (S)-1-(2-fluorophenyl)-3-(2-oxo-5-phenyl-2,3-dihydro-1H-benzo[e][1,4]diazepin-3-yl) urea, reference compound]
A = 0, B (A-60444) = 34
  normalized GFP signal: 1.00
A = 0, B (A-60444) = 103
  normalized GFP signal: 1.00
A = 0, B (A-60444) = 309
  normalized GFP signal: 0.96
A = 0, B (A-60444) = 926
  normalized GFP signal: 0.93
A = 0, B (A-60444) = 2778
  normalized GFP signal: 0.93
A = 0, B (A-60444) = 8333
  normalized GFP signal: 0.75
A = 0, B (A-60444) = 25000
  normalized GFP signal: 0.39

## Cc1nnnn1/N=C/c1ccc(O)c(C(c2ccc(O)cc2)c2cc(/C=N/n3nnnc3C)ccc2O)c1 [MDT-637, reference compound]
  normalized GFP signal: 0.99 and 0.95
A = 0, B (MDT-637) = 0.038
  normalized GFP signal: 1.01
A = 0, B (MDT-637) = 1
  normalized GFP signal: 0.93
A = 0, B (MDT-637) = 3.1
  normalized GFP signal: 0.75
A = 0, B (MDT-637) = 9.3
  normalized GFP signal: 0.14
A = 0, B (MDT-637) = 28
  normalized GFP signal: 0.01

## Cc1cnc(N2CC3(CCOCC3)C2)c(C(=O)Nc2ccc(C(=O)N3CCc4cc(C(=O)Nc5c(C)cccc5F)sc4-c4ccccc43)cc2)c1 [pulmocide compound, N-(2-fluoro-6-methylphenyl)-6-(4-(5-methyl-2-(7-oxa-2-azaspiro[3.5]nonan-2-yl)nicotinamido)benzoyl)-5,6-dihydro-4H-benzo[b]thieno[2,3-d]azepine-2-carboxamide, reference compound]
  normalized GFP signal: 1.04
A = 0, B (pulmocide compound) = 0.058
  normalized GFP signal: 0.99
A = 0, B (pulmocide compound) = 0.17
  normalized GFP signal: 0.99
A = 0, B (pulmocide compound) = 1.6
  normalized GFP signal: 0.91
A = 0, B (pulmocide compound) = 4.7
  normalized GFP signal: 0.20
A = 0, B (pulmocide compound) = 14
  normalized GFP signal: 0.02
A = 0, B (pulmocide compound) = 42
  normalized GFP signal: 0.02

## NC(=O)c1ncn([C@@H]2O[C@H](CO)[C@@H](O)[C@H]2O)n1 [ribavirin, 1-β-D-ribofuranosyl-1H-1,2,4-triazole-3-carboxamide, reference compound]
A = 0, B (ribavirin) = 69
  normalized GFP signal: 1.00
A = 0, B (ribavirin) = 206
  normalized GFP signal: 0.98
A = 0, B (ribavirin) = 617
  normalized GFP signal: 0.98
A = 0, B (ribavirin) = 1852
  normalized GFP signal: 0.97
A = 0, B (ribavirin) = 5556
  normalized GFP signal: 0.94
A = 0, B (ribavirin) = 16667
  normalized GFP signal: 0.83
A = 0, B (ribavirin) = 50000
  normalized GFP signal: 0.13

## palivizumab: monoclonal antibody CAS 188039-54-5
A = 0, B (palivizumab) = 0.0061
  normalized GFP signal: 1.05
A = 0, B (palivizumab) = 0.018
  normalized GFP signal: 1.01
A = 0, B (palivizumab) = 0.055
  normalized GFP signal: 0.97
A = 0, B (palivizumab) = 0.165
  normalized GFP signal: 1.01
A = 0, B (palivizumab) = 0.494
  normalized GFP signal: 0.89
A = 0, B (palivizumab) = 1.482
  normalized GFP signal: 0.33
A = 0, B (palivizumab) = 4.447
  normalized GFP signal: 0.06
